Assay results: paper PMC6385242, “Identification and characterization of a factor Va-binding site on human prothrombin fragment 2” (Scientific Reports, 2019)
Blank lines part the entries; values can stand above or below the substance they belong to.

Key:
[1] = tested on: F2 (prothrombin fragment 2); experiment: HSQC NMR of 15N-labeled F2 with thrombin or thrombin-derived peptide; type: binding, human; details: F2:peptide ratio as printed
Method: Uniform ^15N and ^13C/^15N isotopic labeling of F2 was achieved as described previously. Once labeled, F2 preparations prepared and pH adjusted, 25 μL of D2O was added to the protein solution to provide the NMR deuterium lock signal. For the titration experiments, small aliquots of the FVa-HC or FPRck-thrombin, both in 2 mM HEPES, 50 mM sodium phosphate buffer, pH 7, were added to samples of ^15N-labeled F2 up to a molar ratio of ~10:1. […]
All NMR experiments were carried out at 35° C on a Bruker Avance500 or an Avance800 spectrometer equipped with triple-resonance (^1H, ^13C, and ^15N) and three-axis gradient probes. Two-dimensional and three-dimensional NMR data collected for ^15N- and ^13C/^15N-labeled F2 included ^1H-^15N HSQC, HNCO, HN(CA)CO, HNCA, HN(CO)CA, CBCA(CO)NH and HNCACB[57]–[59]. Water suppression was achieved using the WATERGATE method with a 3:9:19 selective pulse incorporated in all the three-dimensional pulse sequences. […]
synthesized a peptide corresponding to residues 91- 101 of human thrombin with two cysteine residues added to form a disulfide bond between the N- and C-terminal en ds of the p eptide (s ee Experimental Procedures). […] Potential binding of the thrombin- derived peptide with F2 was monitored by the 1H-15N HSQC spectra of 15N-labeled F2 with a F2:peptide ratio of 3:1. […]

[2] = tested on: FXa/PCPS, prothrombin activation; experiment: Inhibition of FXa-mediated prothrombin activation by F2-derived peptides in the absence of FVa; type: biochemical, human; details: 300 nM prothrombin, 5 mM CaCl2, 5 μM DAPA, 50 μM PCPS, 20 nM FXa
Method: Figure 3 Inhibition of FXa-mediated prothrombin activation by synthetic peptides derived from F2. […] Reactions were started by addition of 20 nM FXa. […] Reactions were initiated by addition of 0.1 nM FXa. Non-linear regression analysis was carried out to determine the IC50 and the apparent Ki was calculated using the Cheng-Prusoff equation.
(§1) Reactions were started with addition of FXa (0.1 nM), and monitored in SpectraMax Gemini fluorescence plate reader (Molecular Devices, Sunnyvale, California) at excitation and emission wavelengths of 280 nm and 545 nm, respectively, with a 530 nm emission cut off filter in the emission beam at 25 °C. In the absence of FVa, reactions were carried out as described above; however, the reactions were started with the addition of 20 nM FXa. The Ki values were estimated using the Cheng-Prusoff equation (IC50 = [1 + ([S]/KM)] Ki) based on the IC50 values obtained by nonlinear regression of a rectangular hyperbola, whereby [S] is the prothrombin concentration and KM is the Michaelis constant of prothrombinase for prothrombin determined in a separate experiment as described previously.

[3] = target: T1, prothrombinase (FXa/FVa/PCPS), prothrombin activation (Homo sapiens, UniProt P00742+P12259); experiment: Relative rate of prothrombin activation with F2-derived peptides (screen, Fig. S1); type: biochemical; details: peptide 0, 50, 200, 500 μM; 300 nM prothrombin, 5 mM CaCl2, 3 μM DAPA, 50 μM PCPS, 5 nM FVa, 0.05 nM FXa
T1 construct: purchased Haematologic Technologies, Inc (FXa, FVa); Enzyme Research Laboratories (prothrombin)
T1 sequence (P12259 29-737 limits assumed): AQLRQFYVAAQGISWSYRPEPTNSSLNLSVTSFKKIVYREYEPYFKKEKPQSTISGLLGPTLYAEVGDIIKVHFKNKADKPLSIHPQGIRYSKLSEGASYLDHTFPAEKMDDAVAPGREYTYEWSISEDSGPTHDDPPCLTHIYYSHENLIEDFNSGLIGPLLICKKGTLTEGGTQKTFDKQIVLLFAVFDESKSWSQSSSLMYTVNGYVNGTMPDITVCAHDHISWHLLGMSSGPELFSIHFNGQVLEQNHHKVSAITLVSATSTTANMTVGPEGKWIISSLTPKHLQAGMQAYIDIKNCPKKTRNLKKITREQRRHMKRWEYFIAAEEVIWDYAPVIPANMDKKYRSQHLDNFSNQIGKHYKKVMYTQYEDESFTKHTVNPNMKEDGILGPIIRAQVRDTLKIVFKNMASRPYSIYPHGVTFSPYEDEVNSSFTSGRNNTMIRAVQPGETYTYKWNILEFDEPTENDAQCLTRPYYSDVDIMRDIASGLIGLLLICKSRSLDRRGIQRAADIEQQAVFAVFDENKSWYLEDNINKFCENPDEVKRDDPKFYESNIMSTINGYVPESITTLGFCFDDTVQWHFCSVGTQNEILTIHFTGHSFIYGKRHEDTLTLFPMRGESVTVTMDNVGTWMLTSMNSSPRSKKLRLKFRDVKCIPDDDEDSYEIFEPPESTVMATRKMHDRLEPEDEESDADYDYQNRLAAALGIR
T1 sequence (P12259 1574-2224 limits assumed): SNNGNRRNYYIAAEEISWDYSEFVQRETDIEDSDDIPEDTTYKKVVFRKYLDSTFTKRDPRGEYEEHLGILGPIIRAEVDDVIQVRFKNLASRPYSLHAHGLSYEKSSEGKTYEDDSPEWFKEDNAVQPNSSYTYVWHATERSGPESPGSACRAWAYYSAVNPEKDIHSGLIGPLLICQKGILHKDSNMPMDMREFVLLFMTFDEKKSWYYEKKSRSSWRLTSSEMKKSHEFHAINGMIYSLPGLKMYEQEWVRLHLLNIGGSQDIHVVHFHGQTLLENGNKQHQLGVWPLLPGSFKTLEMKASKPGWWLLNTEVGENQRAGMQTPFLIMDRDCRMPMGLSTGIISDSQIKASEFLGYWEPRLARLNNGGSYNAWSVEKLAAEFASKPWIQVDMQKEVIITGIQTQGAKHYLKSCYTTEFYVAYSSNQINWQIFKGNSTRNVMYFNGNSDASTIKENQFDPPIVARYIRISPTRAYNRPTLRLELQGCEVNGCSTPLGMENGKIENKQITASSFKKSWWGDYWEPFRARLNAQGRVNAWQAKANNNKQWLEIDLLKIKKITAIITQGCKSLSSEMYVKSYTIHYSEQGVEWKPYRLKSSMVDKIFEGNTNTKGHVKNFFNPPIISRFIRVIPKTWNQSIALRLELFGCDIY
T1 sequence (P00742 41-179 partner limits assumed): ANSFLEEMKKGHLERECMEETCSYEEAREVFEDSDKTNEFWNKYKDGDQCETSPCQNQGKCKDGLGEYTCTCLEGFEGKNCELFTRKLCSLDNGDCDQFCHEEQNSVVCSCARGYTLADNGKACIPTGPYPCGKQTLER
T1 sequence (P00742 235-488 partner limits assumed): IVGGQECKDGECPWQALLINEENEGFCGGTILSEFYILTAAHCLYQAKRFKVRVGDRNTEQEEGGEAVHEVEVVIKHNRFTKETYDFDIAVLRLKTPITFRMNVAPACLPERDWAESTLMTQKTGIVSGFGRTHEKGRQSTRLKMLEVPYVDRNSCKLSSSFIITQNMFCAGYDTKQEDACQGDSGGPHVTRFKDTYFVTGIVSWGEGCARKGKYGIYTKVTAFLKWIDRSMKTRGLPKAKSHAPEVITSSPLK
Method: as §1
Figure S1. Relative rate of prothrombin activation in the presence of each of the peptides at various concentrations. Initial rates of prothrombin activation were determined from reactions containing 300 nM prothrombin. 5 mM CaCl2, 3 μM DAPA, 50 μM PCPS, 5 nM FVa and 0.05 nM FXa. Relative rates of prothrombin activation are shown for each concentration of peptide at […]
(1 picture or pasted object on this page, not shown here)

prothrombinase = details: cited from earlier work
Excerpt: It has been widely accepted that FVa alone increases the rate of thrombin generation by 3 orders of magnitude while the membrane surface alone increases the catalytic efficiency of thrombin generation by 2 orders of magnitude, which together increases its catalytic efficiency by 5 orders of magnitude. These individual contributions of the prothrombinase components toward overall thrombin generation, however, were not observed in our experiments (Table 1). […] The 5-orders of magnitude ...

[4] = pH 7.4
[5] = tested on: F2 (prothrombin fragment 2); details: thrombin/F2 molar ratios 1:30 to 1:10; clusters Asp68–Lys81 and Ala96–Asp108; ref (9) Koutychenko, A. (2002); cited from earlier work
Excerpt: page 3: plasma-derived material, indicating purity and functional integrity of the recombinant F2 protein (9). […] Not abl y, there were two upfield -shifted meth yl proton resonances, which are common for a conserved Leu residue in all kringle domains (10 –12) .

Substance: CH91PRYNWRENLDR101C (disulfide) [thrombin-derived peptide, residues 91-101 in the B-chain of human thrombin with two Cys residues added, cyclic]
chemical shift changes in 15N-F2 versus intact thrombin [1]: smaller chemical shift changes

Substance: DGLDEDSDRAIEGR [F2P8, F2-derived peptide, prothrombin residues 258-271]
inhibition of prothrombin activation in the absence of FVa [2]: inhibited prothrombin activation
dose-dependent inhibition of prothrombin activation [3]: inhibited prothrombin activation in a dose-dependent manner

dose-dependent inhibition of prothrombin activation [3]: did not
Substance: DLNYS*EEAVEEETG [F2P7, F2-derived peptide, prothrombin residues 244-257, cysteine changed to serine]

Substance: EGSSVNLSPPLE [F2P1, F2-derived peptide, prothrombin residues 157-168]
inhibition of prothrombin activation in the absence of FVa [2]: inhibited prothrombin activation
dose-dependent inhibition of prothrombin activation [3]: inhibited prothrombin activation in a dose-dependent manner

Substance: FVa: factor Va, protein cofactor of prothrombinase
increase in rate of thrombin generation by FVa alone (prothrombinase): 3 orders of magnitude

solubility [4]: not soluble
Substance: LAWASAQAKALSKH [F2P4]

solubility [4]: not soluble
Substance: QDFNSAVQLVEN [F2P5]

dose-dependent inhibition of prothrombin activation [3]: did not
Substance: YVAGKPGDFGY [F2P6, F2-derived peptide, prothrombin residues 232-242]

Substance: thrombin
perturbed HSQC peaks of 15N-F2 [5]: two major clusters
